pEC50: −log10 of the molar value.
Legend:
HIV-IIIb = assay: Antiviral assay in MT-2 cells; assay type: cell-based; conditions: Human immunodeficiency virus 1, 120 h; HIV-IIIb infected cells, 5 days, CellTiter-Glo; MT-2 or MT-4 cells not stated
Description: For the antiviral assay utilizing MT-2 cells, 50 μL of 2× test concentration of 5-fold serially diluted compound in culture medium with 10% FBS was added to each well of a 96-well plate (9 concentrations) in triplicate. MT-2 cells were infected with HIV-IIIb at a multiplicity of infection (m.o.i) of 0.01 for 3 hours. Fifty microliters of infected cell suspension in culture medium with 10% FBS (˜1.5×10^4 cells) was then added to each well containing […] of diluted compound. The plates were then incubated at 37° C. for 5 days. For the antiviral assay utilizing MT-4 cells, 20 μL of 2× test concentration of 5-fold serially diluted compound in culture medium with 10% FBS was added to each well of a 384-well plate (7 concentrations) in triplicate. MT-4 cells were next mixed with HIV-IIIb at an m.o.i. of 0.1 and 20 μl of virus/cell mixture (2000 cells) was immediately added to each well containing […] of diluted compound. The plates were then incubated at 37° C. for 5 days. After 5 days of incubation, 100 μL of CellTiter-Glo™ Reagent (catalog #G7571, Promega Biosciences, Inc., Madison, Wis.) was added to each well containing MT-2 cells and 40 μL to each well containing MT-4 cells. Cell lysis was carried out by incubation at room temperature for 10 min and chemiluminescence was read.

| Structure (SMILES) | pEC50 (HIV-IIIb) | melting point [°C] |
| --- | --- | --- |
| C/C=C(\Cl)Cn1c(C(=O)c2cc(C)cc(C#N)c2)c(C(C)C)c(=O)[nH]c1=O [Compound 6] | > 8.00 | – |
| CC=CCn1c(Oc2cc(C)cc(C)c2)c(C(C)C)c(=O)[nH]c1=O [Compound 115, 1-But-2-enyl-6-(3,5-dimethyl-phenoxy)-5-isopropyl-1H-pyrimidine-2,4-dione] | > 8.00 | – |
| CC=CCn1c(C(=O)c2cc(C)cc(C#N)c2)c(C(C)C)c(=O)[nH]c1=O [Compound 80, 3-(3-But-2-enyl-5-isopropyl-2,6-dioxo-1,2,3,6-tetrahydro-pyrimidine-4-carbonyl)-5-methyl-benzonitrile] | > 8.00 | 177 to 178 |
| CCOCn1c(C(=O)c2cc(C)cc(C)c2)c(C(C)C)c(=O)[nH]c1=O [Compound 54] | > 8.00 | – |
| Cc1cc(C#N)cc(C(=O)c2c(C(C)C)c(=O)[nH]c(=O)n2CC2(CC(N)=O)CC2)c1 [Compound 85, 2-{1-[6-(3-Cyano-5-methyl-benzoyl)-5-isopropyl-2,4-dioxo-3,4-dihydro-2H-pyrimidin-1-ylmethyl]-cyclopropyl}-acetamide] | – | 283 to 285 |
| C=CCCn1c(C(=O)c2cc(C)cc(C#N)c2)c(C(C)C)c(=O)[nH]c1=O [Compound 79, 3-(3-But-3-enyl-5-isopropyl-2,6-dioxo-1,2,3,6-tetrahydro-pyrimidine-4-carbonyl)-5-methyl-benzonitrile] | – | 133 to 134 |
| CCOCn1c(C(=O)c2cc(C)cc(C#N)c2)c(C(C)C)c(=O)[nH]c1=O [Compound 9] | > 8.00 | – |
| CCCCn1c(C(=O)c2cc(C)cc(CCC#N)c2)c(C(C)C)c(=O)[nH]c1=O [Compound 76, 3-[3-(3-Butyl-5-isopropyl-2,6-dioxo-1,2,3,6-tetrahydro-pyrimidine-4-carbonyl)-5-methyl-phenyl]-propionitrile] | > 8.00 | 172 to 173 |
| Cc1cc(C#N)cc(C(=O)c2c(C(C)C)c(=O)[nH]c(=O)n2CCCO)c1 [Compound 25] | > 8.00 | 166 to 167 |
| CCOCn1c(C(F)c2cc(C)cc(C)c2)c(C(C)C)c(=O)[nH]c1=O (centres unmarked) [Compound 57] | > 8.00 | – |
| C/C=C/Cn1c(C(=O)c2cc(C)cc(C)c2)c(C(C)C)c(=O)[nH]c1=O [Compound 60] | > 8.00 | – |
| CCCn1c(C(=O)c2cc(C)cc(C#N)c2)c(C(C)C)c(=O)[nH]c1=O [Compound 46] | > 8.00 | 202 to 203 |
| CCCCn1c(C(=O)c2cc(C)cc(C#N)c2)c(CC)c(=O)[nH]c1=O [Compound 70] | > 8.00 | 190 to 191 |
| CCn1c(C(=O)c2cc(C)cc(C#N)c2)c(C(C)C)c(=O)[nH]c1=O [Compound 3, 3-(3-ethyl-5-isopropyl-2,6-dioxo-1,2,3,6-tetrahydro-pyrimidine-4-carbonyl)-5-methyl-benzonitrile] | > 8.00 | – |
| Cc1cc(C#N)cc(C(=O)c2c(C(C)C)c(=O)[nH]c(=O)n2CC2CC2)c1 [Compound 5] | > 8.00 | – |
| Cc1cc(C#N)cc(C(=O)c2c(C(C)C)c(=O)[nH]c(=O)n2C(C)C)c1 [Compound 77, 3-(3,5-Diisopropyl-2,6-dioxo-1,2,3,6-tetrahydro-pyrimidine-4-carbonyl)-5-methyl-benzonitrile] | – | 278 to 280 |
| CCn1c(C(=O)c2cc(C)cc(CCC#N)c2)c(C(C)C)c(=O)[nH]c1=O [Compound 75, 3-[3-(3-Ethyl-5-isopropyl-2,6-dioxo-1,2,3,6-tetrahydro-pyrimidine-4-carbonyl)-5-methyl-phenyl]-propionitrile] | – | 173 to 174 |
| CCCCn1c(C(=O)c2cc(C)cc(C#N)c2)c(C(C)C)c(=O)[nH]c1=O [Compound 47, 3-(3-Butyl-5-isopropyl-2,6-dioxo-1,2,3,6-tetrahydro-pyrimidine-4-carbonyl)-5-methyl-benzonitrile] | > 8.00 | – |
| Cc1cc(C#N)cc(C(=O)c2c(C(C)C)c(=O)[nH]c(=O)n2CC(C)C)c1 [Compound 78, 3-(3-Isobutyl-5-isopropyl-2,6-dioxo-1,2,3,6-tetrahydro-pyrimidine-4-carbonyl)-5-methyl-benzonitrile] | – | 200 to 201 |
| CCCCn1c(C(=O)c2cc(C)cc(C=CC#N)c2)c(C(C)C)c(=O)[nH]c1=O [Compound 74, 3-[3-(3-Butyl-5-isopropyl-2,6-dioxo-1,2,3,6-tetrahydro-pyrimidine-4-carbonyl)-5-methyl-phenyl]-acrylonitrile] | > 8.00 | 164 to 165 |
| CCn1c(C(=O)c2cc(C)cc(C=CC#N)c2)c(C(C)C)c(=O)[nH]c1=O [Compound 73, 3-[3-(3-Ethyl-5-isopropyl-2,6-dioxo-1,2,3,6-tetrahydro-pyrimidine-4-carbonyl)-5-methyl-phenyl]-acrylonitrile] | > 8.00 | 174 to 176 |
| CCOCn1c(C(=O)c2cc(Cl)cc(C#N)c2)c(C(C)C)c(=O)[nH]c1=O [Compound 38] | > 8.00 | 162 to 164 |
| CCOCn1c(C(=O)c2cc(C)cc(/C=C/C#N)c2)c(C(C)C)c(=O)[nH]c1=O [Compound 56] | > 8.00 | – |
| Cc1cc(C#N)cc(C(=O)c2c(C(C)C)c(=O)[nH]c(=O)n2CCOC(N)=O)c1 [Compound 86, Carbamic acid 2-[6-(3-cyano-5-methyl-benzoyl)-5-isopropyl-2,4-dioxo-3,4-dihydro-2H-pyrimidin-1-yl]-ethyl ester] | > 8.00 | – |
| CCn1c(C(C#N)c2cc(C)cc(C#N)c2)c(C(C)C)c(=O)[nH]c1=O (centres unmarked) [Compound 85, 3-[Cyano-(3-ethyl-5-isopropyl-2,6-dioxo-1,2,3,6-tetrahydro-pyrimidin-4-yl)-methyl]-5-methyl-benzonitrile] | – | 260 to 261 |
| Cc1cc(C=CC#N)cc(C(=O)c2c(C(C)C)c(=O)[nH]c(=O)n2CC2CC2)c1 [Compound 72, 3-[3-(3-Cyclopropylmethyl-5-isopropyl-2,6-dioxo-1,2,3,6-tetrahydro-pyrimidine-4-carbonyl)-5-methyl-phenyl]-acrylonitrile] | > 8.00 | 225 to 226 |
